From PMC6770063, “Utilizing the Combination of Binding Kinetics and Micro-Pharmacokinetics Link in Vitro α-Glucosidase Inhibition to in Vivo Target Occupancy” (Biomolecules, 2019)

Key:
[1] = system: α-Glucosidase (Saccharomyces cerevisiae); assay: Surface plasmon resonance (SPR) binding kinetics, immobilized AGH; conditions: 25 °C, 1:1 Langmuir model
Experimental: Surface plasmon resonance (SPR) experiments were performed to measure the BK parameters between compounds and AGH. After the activation of the surface using NHS and EDC (1:1, v/v), the AGH was immobilized on a CM5 sensor chip (GE healthcare) by using standard amine-coupling at 25 °C with running buffer PBS-P (20 mM phosphate buffer, […], 0.05% surfactant P-20, pH 7.4). The AGH concentration was fixed at 50 ng/µL and the immobilization level of AGH was about 8000 RU (response unit, 1 RU response value is roughly equivalent to 1 pg/mm^2 change of the concentration of the bound substance on the chip surface). After coupling, unreacted NHS ester groups were blocked with ethanolamine. Different concentrations of compounds containing 5% DMSO were serially injected into the channel to evaluate the BK parameters. A reference channel was only activated and blocked to eliminate compound unspecific binding to the surface of the chip. An extra wash with 50% DMSO was added to remove the last remaining sample in the pipeline. The on-rates and the off-rates of the compounds were obtained by fitting the data sets to 1:1 Langmuir binding model using the Biacore T200 Evaluation Software (GE Healthcare).

[2] = system: α-Glucosidase (Saccharomyces cerevisiae); assay: Binding kinetics by reaction progress curve analysis; type: biochemical; conditions: for binding mechanism: kobs versus concentration hyperbolic; for Dissociation Half-Life: ln2 divided by koff (progress curve); for time dependence of inhibition: preincubation and progress curves; for Ki: read-out: Ki* (final equilibrium dissociation constant, true affinity)
Text: Progress curves were fitted to the equation (Equation (1)) described by Williams and Morrison to calculate kobs values for slow binding (i.e., time-dependent) inhibition. (1) A=vs×t+(vi−vs)(1−e^−kobs×t/kobs)+A0 where A is the absorbance; vi and vs are initial and steady-state velocities (expressed in A/time), respectively; t is time; kobs is the pseudo first order rate constant for the approach to steady-state and A0 is the initial blank absorbance at 405 nm. In order to determine inhibition modality and calculate inhibition constants obtained, steady-state rates from progress curves were subsequently fitted to the following steady-state velocity equation (Equation (2)) described by Robert A. Copeland [34] for noncompetitive inhibition:(2) v=vmax×[S]/[S]×(1+[I]/αKi)+Km×(1+[I]/Ki) where v is velocity; Vmax refers to the maximum velocity; [I] is concentration of inhibition; Km refers to Michaelis constant; α is constant.
(3) kobs=k4+(k3×[I]/Kiapp+[I]) (4) kon=k3/Ki (5) koff=k4 (6) Ki*=Ki/1+k3/k4 where k3 is forward enzyme isomerization rate constant; k4 is reverse enzyme isomerization rate constant, Ki^app is the apparent value of the Ki for the initial encounter complex. Ki was estimated using the following Cheng-prusoff equation (Equation (7)) as described previously for noncompetitive inhibition:(7) Kiapp=Ki×(1+[S]/Km)/((1+α)×([S]/Km))

[3] = target: α-Glucosidase (Saccharomyces cerevisiae); assay: IC50 determination, AGH enzyme inhibition assay (pNPG substrate); type: biochemical; conditions: 15 min preincubation at 37 °C, 0.36 mM pNPG, mean ± SEM of three experiments
Experimental: Steady-state kinetic studies were carried out on a Multiskan FC Devices. The AGH activity was assayed by adding 50 μL of AGH solution to 300 μL of substrate solution (pNPG was used as the substrate) in 0.1 M PBS buffer (pH 6.8), followed by incubation at 37 °C for 30 min. The AGH activity was measured by monitoring an increase of the p-nitrophenol (pNP) released from substrate pNPG in absorbance at 405 nm.
AGH was preincubated with two tea polyphenols for 15 min at 37 °C, respectively. The reaction was started by the addition of the pNPG (0.36 mM final concentration), and the initial rate was measured by ultraviolet (UV) detector. Linearity of UV response was confirmed with correlation coefficients (R^2) of > 0.99. Data were the means ± standard error of the mean (SEM) of three independent experiments, and were fitted using standard four-parameter logistic models to measure IC50 values by JMP software (version 11.0.0, SAS Institute, Inc., Cary, NC, USA).

[4] = system: α-Glucosidase (Saccharomyces cerevisiae); assay: Mutual exclusivity study (Yonetani-Theorell); type: biochemical; conditions: combination of ECG with EGCG, Equation (8)
Experimental: Mutual exclusivity studies were performed by measuring the reaction velocity at several fixed concentrations of one investigated compound while titrating another tested compound with various concentrations, and data were evaluated by the method (Equation (8)) proposed by Yonetanii and Theorell that yielded a value of β for different noncompetitive inhibition by nonlinear regression analysis. (8) 1/vij=1/v0×(1+[I]/Ki+[J]/Kj+[I][J]/βKiKj) where vij is the enzyme velocity in the presence of both compounds at concentrations [I] and [J]; v0 is the velocity in the absence of compound; β is an interaction constant that defines the degree to which binding of one compound perturbs the affinity of the enzyme for the second compound.

[5] = system: α-Glucosidase (Saccharomyces cerevisiae); assay: Steady-state velocity fit and double reciprocal plot (inhibition type); type: biochemical; conditions: for constant α: Equation (2), noncompetitive inhibition; for type of inhibition: double reciprocal plot; for Ki: steady-state velocity fit, read-out: free AGH binding inhibition constant (Ki)
Experimental: The reaction progress of AGH inhibition by ECG was measured under the pseudo-first-order conditions ([I], initiated by the addition of 50 μL AGH to 300 μL of a mixture of tested compound and substrate and monitor the liberation of free pNP at 405 nm. The final pNPG concentrations ranged from 0.18 to 1.44 mM. The compound investigated concentrations were 0, 0.7, 1.4, 2.8, 5.6, 11.2 μM. The reading was recorded every 20 s during 4000 s and blank absorbance values were subtracted from the data before subsequent calculations. Similar experiments were performed with EGCG to measure its reaction progress curve. Progress curves were fitted to the equation (Equation (1)) described by Williams and Morrison to calculate kobs values for slow binding (i.e., time-dependent) inhibition. (1) A=vs×t+(vi−vs)(1−e^−kobs×t/kobs)+A0 where A is the absorbance; vi and vs are initial and steady-state velocities (expressed in A/time), respectively; t is time; kobs is the pseudo first order rate constant for the approach to steady-state and A0 is the initial blank absorbance at 405 nm. In order to determine inhibition modality and calculate inhibition constants obtained, steady-state rates from progress curves were subsequently fitted to the following steady-state velocity equation (Equation (2)) described by Robert A. Copeland [34] for noncompetitive inhibition:(2) v=vmax×[S]/[S]×(1+[I]/αKi)+Km×(1+[I]/Ki) where v is velocity; Vmax refers to the maximum velocity; [I] is concentration of inhibition; Km refers to Michaelis constant; α is constant.
The inhibition type of the tested compounds against AGH was determined using a double reciprocal plot of 1/v as a function of 1/[S] in terms of intersecting lines converging to the location of the y-axis and the x-axis.

[6] = system: α-Glucosidase (Saccharomyces cerevisiae); assay: Off-rate by rapid dilution approach; type: biochemical
Experimental: Among these BK parameters, the off-rate value of acarbose was determined by applying the rapid dilution approaches, which were readily available from the references [35, 49].

[7] = progress curve analysis, two-step induced-fit model

Q: How did the koff [1] turn out when `O=C(O[C@@H]1Cc2c(O)cc(O)cc2O[C@@H]1c1ccc(O)c(O)c1)c1cc(O)c(O)c(O)c1` [ECG, Epicatechin gallate] was run?
A: 0.0073 s⁻¹

Q: What about the kon [1] of the same compound?
A: 6300 M⁻¹ s⁻¹

Q: What about the binding mechanism [2] of the same compound?
A: two-step induced-fit mechanism

Q: And the “Dissociation Half-Life” value [2]?
A: 7.2 min

Q: And the “time dependence of inhibition” value [2]?
A: slow binding inhibitor

Q: And the koff [2, 7]?
A: 1.6 ± 0.3 10^−3 s^−1

Q: And the kon [2, 7]?
A: 0.2 ± 0.05 10^3 M^−1s^−1

Q: What about the Ki ([2]; progress curve analysis) of the same compound?
A: 1000 ± 300 nM

Q: And the IC50 [3]?
A: 1500 ± 300 nM

Q: What about the “β-value (interaction constant)” value [4] of the same compound?
A: 4133197

Q: And the “constant α” value [5]?
A: 1.3

Q: What about the type of inhibition [5] of the same compound?
A: noncompetitive inhibitor

Q: What about the Ki [5] of the same compound?
A: 1100 nM

Q: Which koff [1] does the source give for `O=C(O[C@@H]1Cc2c(O)cc(O)cc2O[C@@H]1c1cc(O)c(O)c(O)c1)c1cc(O)c(O)c(O)c1` [EGCG, epigallocatechin gallate] here?
A: 0.0038 s⁻¹

Q: What about the kon [1] of the same compound?
A: 5700 M⁻¹ s⁻¹

Q: What about the binding mechanism [2] of the same compound?
A: two-step induced-fit mechanism

Q: And the “Dissociation Half-Life” value [2]?
A: 6 min

Q: What about the “time dependence of inhibition” value [2] of the same compound?
A: slow binding inhibition

Q: What about the koff [2, 7] of the same compound?
A: 1.9 ± 0.2 10^−3 s^−1

Q: What about the kon [2, 7] of the same compound?
A: 2.4 ± 0.3 10^3 M^−1s^−1

Q: What about the Ki ([2]; progress curve analysis) of the same compound?
A: 160 ± 30 nM

Q: What about the IC50 [3] of the same compound?
A: 410 ± 100 nM

Q: And the “β-value (interaction constant)” value [4]?
A: 4133197

Q: What about the “constant α” value [5] of the same compound?
A: 5.6

Q: And the type of inhibition [5]?
A: noncompetitive inhibitor

Q: What about the Ki [5] of the same compound?
A: 200 nM

Q: What does the source list for `C[C@H]1O[C@H](O[C@H]2[C@H](O)[C@@H](O)[C@@H](O[C@H]3[C@H](O)[C@@H](O)C(O)O[C@@H]3CO)O[C@@H]2CO)[C@H](O)[C@@H](O)[C@@H]1N[C@H]1C=C(CO)[C@@H](O)[C@H](O)[C@H]1O` (some centres unmarked) [Acarbose, acarbose]?
A: Dissociation Half-Life ([6]; ln2 divided by koff (rapid dilution)): 10.1 h; koff ([6]; rapid dilution approach): 1.9 ± 0.2 10^−5 s^−1; kon ([2]; acarbose, Supplementary Table S2): 2.1 ± 0.3 10^6 M^−1s^−1
